# Tests used:
# [1] = Visible particles in E/P box (Ph. Eur. 2.9.20) after spiking FFA to inorganic salt solutions; type: physicochemical; details: FFA below solubility limit; for Visible particles E/P d0: d0 directly after spiking
# Protocol: (§1) Aqueous stock solutions were prepared in 0.02% PS20 (Croda. Edison, N.J., USA) at defined concentrations of (1) 5 mg/mL and (2) 12.5 mg/mL (lauric acid. Sigma-Aldrich/Merck. Darmstadt. Del.) or (1) 1.5 mg/mL and (2) 5 mg/mL (myristic acid, Sigma-Aldrich/Merck. Darmstadt. Del.) as previously described by Doshi et al.^6 The procedure was adapted that the FFA/PS20 stock solution was sterile filtered using 0.22 μm PVDF Steriflip filters (Merck Millipore. Darmstadt. Del.) before 1:10 dilution and subsequently homogenized without a magnetic stirrer using a Heidolph Rotamax 120 orbital shaker (Schwabach. Del.) at 100 rpm at 25° C., for 1 hour. After 1:500 dilution, the solution was homogenized for 1 hour at 25° C., before homogenization at 2-8° C., overnight, 12-40 μL of stock solution were used for spiking experiments yielding final FFA concentrations of (1) 10 μg/mL and (2) 25 μg/mL (lauric acid) or (1) 3 μg/mL and (2) 10 μg/mL (myristic acid). Dilutions with stock solutions 1 yield FFA concentration below their solubility limit, whereas stock solutions 2 act as positive control confirmed by the formation of visible particles. FFA concentrations were verified for selected by LC-MS samples acc. Honemann et al.^7
# Aqueous stock solutions of different salts were prepared at 1 mg/mL and used for spiking experiments to final concentrations between […]. NaCl, NaAlO2. NaBO2. B2O3, and CaCl2 (Sigma-Aldrich/Merck. Darmstadt. Del.) were selected as their dissolution products (ions) represent typical glass leachables from Type I borosilicate glass. The pH of the NaAlO2 and NaBO2 stock solutions was adjusted to pH 6 using HCl and subsequently filtered using 0.22 μm PVDF Sterivex filters (Merck Millipore. Darmstadt. Del.) and true elemental concentrations were determined by inductively-coupled plasma mass spectrometry (ICP-MS). Elemental concentrations were 0,048 μg/mL Aluminium and 295 μg/mL sodium and 78 μg/mL boron and 168 μg/mL, respectively. Spiking experiments with FFA were performed in duplicates.
# (§2) Samples were analyzed by visual inspection on a Seidenader V 90-T instrument (Seidenader Maschinenbau GmbH. Markt Schwaben. Del.) as previously described by Ditter et al.^9 and using a black/white panel according Ph. Eur. 2.9.20.^10 and classified as Many particles (>7). Few particles (4-7), or Practically free of particles (0-4) in E/P box, and Many particles (>10). Few particles (6-10). Essentially free of particles (1-5), or Free of particles (0) by Seidenader.
# (§3) pH of all solutions was verified. Samples were visually inspected immediately after spiking and regularly for up to 7 days. Further characterization by HIAC, turbidity, FTIR, and SEM-EDX was performed on day 1 only. All samples were analyzed when equilibrated to room temperature (4 h).
# Different inorganic salt solutions, i.e. CaCl2. NaAlO2. NaBO2. B2O3, and NaCl, were prepared simulating artificial glass leachables. Myristic and lauric acid, as main degradation product from hydrolytic PS20 degradation, were added at concentrations below their solubility limit and samples were analyzed for visible particles. SVP, and turbidity. Samples were compared against relevant controls and the pH verified at pH 6.
# [2] = Visible particles (Seidenader) after spiking FFA to glass leachable solutions; type: physicochemical; set-up: key to Visible particles: relative ranking to each other from less to most particle fromation (+, ++, +++); relative ranking to each other from less to most particle fromation (+, ++, +++); relative ranking to each other from less to most particle fromation (+, ++, +++); details: for Visible particles d0: d0 directly after spiking; for Visible particles: FFA below solubility limit, up to 7 days, triplicates
# Protocol: as §1
# Representative mixtures of glass leachables were obtained from three different types of glass vials, e.g. Exp 33 and Exp51 (Schott A G, Müllheim, D E, and Schott North America Inc., N.Y. USA) in the 6 mL format, by three autoclavation cycles (121° C., 20 min) representing accelerate aging conditions. Vials were filled with 6 mL of either water for injection (WFI), 20 mM glycine solution pH 10 or a typical placebo solution used for protein formulations consisting of 20 mM Histidine/Histdine-HCl buffer pH 6.0, 10 mM Methionine, 240 mM sucrose (Ferro Pfanstiehl. Waukegan. Ill. USA), and 0.02% PS20. The pH of the glycine solutions was adapted after autoclavation with HCl to pH 6.0 and filtered through a 0.22 μm PVDF Sterivex filters (Merck Millipore. Darmstadt. Del.) Leachable concentrations were verified ICP-MS (Table 1) as described by Ditter et al.^8 Spiking experiments with FFA were performed in triplicates,
# as §2, §3
# Glass leachables were generated from different types of glass vials, e.g. Exp33 and Exp51 vials, with different matrix solutions including WFI, a glycine solution adjusted to pH 6, and a placebo solution representative for a mAb formulation. Defined amounts of myristic and lauric acid below their solubility limit were added to the solutions/mixtures of glass leachables and analyzed. Visible particles in Seidenader are summarized in Table 3 and were detected for all samples in contrast to various controls. Particle formation was dependent on the glass leachable solution and dependent on incubation time. […] An example for the dependency of particle formation on incubation time is provided in Table 3 for myristic acid in glass leachable solution from Exp51 vials/glycine solution. The example highlights the kinetics of particle formation with no particles directly after spiking and more than 10 particles at incubation day 5 and 7. For selected samples, particles were further characterized and identified by FTIR confirming the presence of free fatty acids. […]
# [3] = in water at room temperature; cited from earlier work
# [4] = CaCl2 250 μg/mL (Ca2+ 90 μg/mL)
# [5] = CaCl2 500 μg/mL (Ca2+ 180 μg/mL)
# [6] = CaCl2 1000 μg/mL (Ca2+ 360 μg/mL)
# [7] = NaAlO2 nominal 250 μg/mL (0.012 μg/mL ion)
# [8] = NaAlO2 nominal 500 μg/mL (0.024 μg/mL ion)
# [9] = NaAlO2 nominal 1000 μg/mL (0.048 μg/mL ion)
# [10] = Exp51 vials, 3xTS Glycine pH 6, samples 1-3
# [11] = Exp51 vials, 3xTS Glycine pH 6, samples 1-3, listed as myristic acid
structure (smiles),measurement,setting,value
"CCCCCCCCCCCCCC(=O)O [Myristic acid, myristic acid]",Visible particles E/P d0,[1]; [4],"/ (Practically free of particles (0-4, /) in E/P box)"
same,Visible particles E/P d1,[1]; [4],"/ (Practically free of particles (0-4, /) in E/P box)"
same,Visible particles E/P d2,[1]; [4],"/ (Practically free of particles (0-4, /) in E/P box)"
same,Visible particles E/P d7,[1]; [4],"xxx (Many particles (>7, xxx))"
same,Visible particles E/P d0,[1]; [5],"/ (Practically free of particles (0-4, /) in E/P box)"
same,Visible particles E/P d1,[1]; [5],"xx (Few particles (4-7, xx))"
same,Visible particles E/P d7,[1]; [5],"xxx (Many particles (>7, xxx))"
same,Visible particles E/P d0,[1]; [6],"/ (Practically free of particles (0-4, /) in E/P box)"
same,Visible particles E/P d1,[1]; [6],"xxx (Many particles (>7, xxx))"
same,Visible particles E/P d2,[1]; [6],"xxx (Many particles (>7, xxx))"
same,Visible particles E/P d7,[1]; [6],"xxx (Many particles (>7, xxx))"
same,Visible particles E/P d0,[1]; [7],"/ (Practically free of particles (0-4, /) in E/P box)"
same,Visible particles E/P d1,[1]; [7],"/ (Practically free of particles (0-4, /) in E/P box)"
same,Visible particles E/P d2,[1]; [7],"/ (Practically free of particles (0-4, /) in E/P box)"
same,Visible particles E/P d7,[1]; [7],"/ (Practically free of particles (0-4, /) in E/P box)"
same,Visible particles E/P d0,[1]; [8],"/ (Practically free of particles (0-4, /) in E/P box)"
same,Visible particles E/P d1,[1]; [8],"/ (Practically free of particles (0-4, /) in E/P box)"
same,Visible particles E/P d2,[1]; [8],"/ (Practically free of particles (0-4, /) in E/P box)"
same,Visible particles E/P d0,[1]; [9],"/ (Practically free of particles (0-4, /) in E/P box)"
same,Visible particles E/P d1,[1]; [9],"/ (Practically free of particles (0-4, /) in E/P box)"
same,Visible particles E/P d7,[1]; [9],"xxx (Many particles (>7, xxx))"
same,Visible particles d0,[2]; [10],1-5 particles
same,Visible particles d0,[2]; [11],no particles
same,Visible particles d1,"[2]; Exp51 vials, 3xTS Glycine pH 6, d1, samples 1-3",1-5 particles
same,Visible particles d5/7,[2]; [10],>10 particles
same,Visible particles d5/7,[2]; [11],more than 10 particles
same,Visible particles,"[2]; glass leachable solution Exp33 vials, 3xTS Glycine pH 6",+
same,Visible particles,"[2]; glass leachable solution Exp33 vials, 3xTS Placebo",+
same,Visible particles,"[2]; glass leachable solution Exp33 vials, 3xTS WFI",+
same,Visible particles,"[2]; glass leachable solution Exp51 vials, 3xTS Glycine pH 6",+++
same,Visible particles,"[2]; glass leachable solution Exp51 vials, 3xTS Placebo",+
same,Visible particles,"[2]; glass leachable solution Exp51 vials, 3xTS WFI",+
same,solubility level,[3],7 µg/mL
